Species: Rattus norvegicus
Test: DrugMatrix - Regimen: Daily Repeat
Assay type: toxicity, organism-based, Sprague-Dawley
Design: regimen Daily Repeat, gender Male, age 6-8 weeks
Settings: in vivo, po, route oral GAVAGE, vehicle 100 % WATER; for ABSOLUTE BASOPHIL / ABSOLUTE EOSINOPHIL / ABSOLUTE LYMPHOCYTE / ABSOLUTE MONOCYTE / ABSOLUTE SEGMENTED NEUTROPHIL / BASOPHIL / EOSINOPHIL / ERYTHROCYTE COUNT / HEMATOCRIT / HEMOGLOBIN / LEUKOCYTE COUNT / LYMPHOCYTE / MEAN CORPUSCULAR HEMOGLOBIN / MEAN CORPUSCULAR HEMOGLOBIN CONCENTRATION / MEAN CORPUSCULAR VOLUME / MONOCYTE / NEUTROPHIL / NUCLEATED RED BLOOD CELLS / PLATELET COUNT: tissue Blood; for ALANINE AMINOTRANSFERASE / ALBUMIN / ALKALINE PHOSPHATASE / ASPARTATE AMINOTRANSFERASE / BLOOD UREA NITROGEN / CARBON DIOXIDE / CHLORIDE / CHOLESTEROL / CREATINE PHOSPHOKINASE / CREATININE / GLUCOSE / LACTATE DEHYDROGENASE / LIPASE / PHOSPHORUS / POTASSIUM / SODIUM / TOTAL BILIRUBIN / TOTAL PROTEIN / URIC ACID: tissue Plasma
[1] = 4.5 mg/kg, 120 h, dose level Low, time 5 day
[2] = 45 mg/kg, 72 h, dose level High, time 3 day
[3] = 45 mg/kg, 120 h, dose level High, time 5 day

Compound: NN [HYDRAZINE]
- ABSOLUTE BASOPHIL [1]: 0 CELLS/uL
- ABSOLUTE EOSINOPHIL [1]: 61.33 CELLS/uL
- ABSOLUTE LYMPHOCYTE [1]: 9152.67 CELLS/uL
- ABSOLUTE MONOCYTE [1]: 216 CELLS/uL
- ABSOLUTE SEGMENTED NEUTROPHIL [1]: 1236.67 CELLS/uL
- BASOPHIL [1]: 0%
- EOSINOPHIL [1]: 0.67%
- ERYTHROCYTE COUNT [1]: 5.22 x10E6/uL
- HEMATOCRIT [1]: 32.97%
- HEMOGLOBIN [1]: 13.03 G/DL
- LEUKOCYTE COUNT [1]: 10.67 x10E3/uL
- LYMPHOCYTE [1]: 85.33%
- MEAN CORPUSCULAR HEMOGLOBIN [1]: 25 pg
- MEAN CORPUSCULAR HEMOGLOBIN CONCENTRATION [1]: 39.57 G/DL
- MEAN CORPUSCULAR VOLUME [1]: 63.23 fL
- MONOCYTE [1]: 2%
- NEUTROPHIL [1]: 12%
- NUCLEATED RED BLOOD CELLS [1]: 0 /100WBC
- PLATELET COUNT [1]: 1367.67 x10E3/uL
- ALANINE AMINOTRANSFERASE [1]: 34.33 u/L
- ALBUMIN [1]: 4.27 G/DL
- ALKALINE PHOSPHATASE [1]: 357 u/L
- ASPARTATE AMINOTRANSFERASE [1]: 88.33 u/L
- BLOOD UREA NITROGEN [1]: 18.33 mg/dL
- CARBON DIOXIDE [1]: 28 mmol/L
- CHLORIDE [1]: 100 MEQ/L
- CHOLESTEROL [1]: 80 mg/dL
- CREATINE PHOSPHOKINASE [1]: 469 u/L
- CREATININE [1]: 0.17 mg/dL
- GLUCOSE [1]: 135.67 mg/dL
- LACTATE DEHYDROGENASE [1]: 538.33 u/L
- LIPASE [1]: 11 u/L
- PHOSPHORUS [1]: 11.77 mg/dL
- POTASSIUM [1]: 5.73 MEQ/L
- SODIUM [1]: 142.13 MEQ/L
- TOTAL BILIRUBIN [1]: 0.13 mg/dL
- TOTAL PROTEIN [1]: 5.87 G/DL
- URIC ACID [1]: 1.37 mg/dL
- ABSOLUTE BASOPHIL [2]: 0 CELLS/uL
- ABSOLUTE EOSINOPHIL [2]: 101.33 CELLS/uL
- ABSOLUTE LYMPHOCYTE [2]: 9888 CELLS/uL
- ABSOLUTE MONOCYTE [2]: 143.33 CELLS/uL
- ABSOLUTE SEGMENTED NEUTROPHIL [2]: 634 CELLS/uL
- BASOPHIL [2]: 0%
- EOSINOPHIL [2]: 1%
- ERYTHROCYTE COUNT [2]: 5.85 x10E6/uL
- HEMATOCRIT [2]: 35.23%
- HEMOGLOBIN [2]: 13.87 G/DL
- LEUKOCYTE COUNT [2]: 10.77 x10E3/uL
- LYMPHOCYTE [2]: 91.67%
- MEAN CORPUSCULAR HEMOGLOBIN [2]: 23.77 pg
- MEAN CORPUSCULAR HEMOGLOBIN CONCENTRATION [2]: 39.43 G/DL
- MEAN CORPUSCULAR VOLUME [2]: 60.27 fL
- MONOCYTE [2]: 1.33%
- NEUTROPHIL [2]: 6%
- NUCLEATED RED BLOOD CELLS [2]: 0.33 /100WBC
- PLATELET COUNT [2]: 1202 x10E3/uL
- ALANINE AMINOTRANSFERASE [2]: 14 u/L
- ALBUMIN [2]: 4.07 G/DL
- ALKALINE PHOSPHATASE [2]: 403.33 u/L
- ASPARTATE AMINOTRANSFERASE [2]: 77.67 u/L
- BLOOD UREA NITROGEN [2]: 17.67 mg/dL
- CARBON DIOXIDE [2]: 31.33 mmol/L
- CHLORIDE [2]: 98.33 MEQ/L
- CHOLESTEROL [2]: 44 mg/dL
- CREATINE PHOSPHOKINASE [2]: 676.33 u/L
- CREATININE [2]: 0.11 mg/dL
- GLUCOSE [2]: 133.33 mg/dL
- LACTATE DEHYDROGENASE [2]: 533 u/L
- LIPASE [2]: 11 u/L
- PHOSPHORUS [2]: 11.23 mg/dL
- POTASSIUM [2]: 6.63 MEQ/L
- SODIUM [2]: 138.67 MEQ/L
- TOTAL BILIRUBIN [2]: 0.13 mg/dL
- TOTAL PROTEIN [2]: 5.5 G/DL
- URIC ACID [2]: 1.6 mg/dL
- ABSOLUTE BASOPHIL [3]: 0 CELLS/uL
- ABSOLUTE EOSINOPHIL [3]: 63.33 CELLS/uL
- ABSOLUTE LYMPHOCYTE [3]: 8413.33 CELLS/uL
- ABSOLUTE MONOCYTE [3]: 93 CELLS/uL
- ABSOLUTE SEGMENTED NEUTROPHIL [3]: 730.33 CELLS/uL
- BASOPHIL [3]: 0%
- EOSINOPHIL [3]: 0.67%
- ERYTHROCYTE COUNT [3]: 5.35 x10E6/uL
- HEMATOCRIT [3]: 31.4%
- HEMOGLOBIN [3]: 12.23 G/DL
- LEUKOCYTE COUNT [3]: 9.3 x10E3/uL
- LYMPHOCYTE [3]: 90.67%
- MEAN CORPUSCULAR HEMOGLOBIN [3]: 22.9 pg
- MEAN CORPUSCULAR HEMOGLOBIN CONCENTRATION [3]: 38.97 G/DL
- MEAN CORPUSCULAR VOLUME [3]: 58.77 fL
- MONOCYTE [3]: 1%
- NEUTROPHIL [3]: 7.67%
- NUCLEATED RED BLOOD CELLS [3]: 0 /100WBC
- PLATELET COUNT [3]: 1463.33 x10E3/uL
- ALANINE AMINOTRANSFERASE [3]: 14.67 u/L
- ALBUMIN [3]: 4 G/DL
- ALKALINE PHOSPHATASE [3]: 346 u/L
- ASPARTATE AMINOTRANSFERASE [3]: 75.67 u/L
- BLOOD UREA NITROGEN [3]: 18.67 mg/dL
- CARBON DIOXIDE [3]: 25.33 mmol/L
- CHLORIDE [3]: 99 MEQ/L
- CHOLESTEROL [3]: 50.67 mg/dL
- CREATINE PHOSPHOKINASE [3]: 391.33 u/L
- CREATININE [3]: 0.11 mg/dL
- GLUCOSE [3]: 153.33 mg/dL
- LACTATE DEHYDROGENASE [3]: 326 u/L
- LIPASE [3]: 11.33 u/L
- PHOSPHORUS [3]: 11.23 mg/dL
- POTASSIUM [3]: 6.42 MEQ/L
- SODIUM [3]: 139.93 MEQ/L
- TOTAL BILIRUBIN [3]: 0.2 mg/dL
- TOTAL PROTEIN [3]: 5.37 G/DL
- URIC ACID [3]: 1.4 mg/dL

From ChEMBL document CHEMBL3885881, “DrugMatrix”
